Experimental data published in paper PMC9516332 (Frontiers in Oncology, 2022).
Like-named read-outs stand apart in the source and are kept apart here.

How the values were obtained:
134 cancer cell lines = experiment: Cell viability assay (ATPlite, 72 hours), IC50 on cancer cell line panel
[1] = target: T1, panel of 255 wild-type kinases (Homo sapiens, UniProt Q96PF2); experiment: Kinase panel profiling at 1 µmol/L (MSA or IMAP), percentage inhibition; format: biochemical; settings: kinase TSSK2; 1 µmol/L single concentration; read-out: %-inhibition at 1 µmol/L, TSSK2
T1 sequence (Q96PF2 1-358): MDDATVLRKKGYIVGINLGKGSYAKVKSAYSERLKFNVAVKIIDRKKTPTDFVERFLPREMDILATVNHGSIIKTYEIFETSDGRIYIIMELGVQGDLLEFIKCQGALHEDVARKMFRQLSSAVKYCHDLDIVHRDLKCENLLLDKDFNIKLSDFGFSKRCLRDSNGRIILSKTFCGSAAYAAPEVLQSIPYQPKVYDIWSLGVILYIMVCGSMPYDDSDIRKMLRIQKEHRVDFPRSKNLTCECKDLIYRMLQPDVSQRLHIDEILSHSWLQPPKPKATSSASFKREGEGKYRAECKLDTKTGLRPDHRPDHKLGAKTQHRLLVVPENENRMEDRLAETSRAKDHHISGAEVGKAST

[2] = target: panel of 255 wild-type kinases (Homo sapiens, UniProt P31749); experiment: as above; format: biochemical; settings: AKT1 kinase assay; 1 µmol/L single concentration; read-out: %-inhibition AKT1
[3] = target: panel of 255 wild-type kinases (Homo sapiens, UniProt Q9Y463); experiment: as above; format: biochemical; settings: kinase DYRK1B; 1 µmol/L single concentration; read-out: %-inhibition at 1 µmol/L, DYRK1B
AP-1060 (ETV6-NTRK3) = experiment: Cell viability assay; settings: read-out: IC50 in cell proliferation assay

## FC(F)(F)c1ccc(CNc2ccc(Cc3c[nH]c4ncc(Cl)cc34)cn2)cn1 [pexidartinib]
134 cancer cell lines; Homo sapiens, MeWo, read-out: IC50 in cell proliferation assay, MeWo cell line
  IC50: > 31.6 µM
134 cancer cell lines; Homo sapiens, NCCIT, read-out: IC50 in cell proliferation assay, NCC-IT cell line
  IC50: > 31.6 µM
134 cancer cell lines; Homo sapiens, NCI-H82, read-out: IC50 in cell proliferation assay, cell line NCI-H82
  IC50: > 31.6 µM
134 cancer cell lines; Homo sapiens, NCI-H460, read-out: IC50 in cell proliferation assay, NCI-H460 cell line
  IC50: 3.33 µM
134 cancer cell lines; Homo sapiens, NCI-H661, read-out: IC50 in cell proliferation assay, NCI-H661 cell line
  IC50: > 31.6 µM
134 cancer cell lines; Homo sapiens, NCI-H716, read-out: IC50 in cell proliferation assay, cell line NCI-H716 (FGFR2-COL14A1)
  IC50: 17 µM
134 cancer cell lines; Homo sapiens, NCI-H1650, read-out: IC50 in cell proliferation assay, NCI-H1650 cell line (EGFR exon19del)
  IC50: > 31.6 µM
134 cancer cell lines; Homo sapiens, NCI-H1975, read-out: IC50 in cell proliferation assay, NCI-H1975 cell line (EGFR p.L858R + p.T790M)
  IC50: > 31.6 µM
134 cancer cell lines; Homo sapiens, NCI-H2228, read-out: IC50 in cell proliferation assay, NCI-H2228 cell line (EML4-ALK)
  IC50: > 31.6 µM
134 cancer cell lines; Homo sapiens, OVCAR-3, read-out: IC50 in cell proliferation assay, cell line OVCAR-3
  IC50: > 31.6 µM
134 cancer cell lines; Homo sapiens, PFSK-1, read-out: IC50 in cell proliferation assay, cell line PFSK-1
  IC50: > 31.6 µM
134 cancer cell lines; Homo sapiens, RL95-2, read-out: IC50 in cell proliferation assay, cell line RL95-2 (EGFR p.A289V)
  IC50: > 31.6 µM
134 cancer cell lines; Homo sapiens, RPMI-7951, read-out: IC50 in cell proliferation assay, cell line RPMI-7951 (BRAF p.V600E)
  IC50: 26.5 µM
134 cancer cell lines; Homo sapiens, RS4-11, read-out: IC50 in cell proliferation assay, cell line RS4;11
  IC50: > 31.6 µM
134 cancer cell lines; Homo sapiens, Rec1, read-out: IC50 in cell proliferation assay, cell line REC-1
  IC50: 16 µM
134 cancer cell lines; Homo sapiens, SHP77, read-out: IC50 in cell proliferation assay, cell line SHP-77
  IC50: > 31.6 µM
134 cancer cell lines; Homo sapiens, SK-BR-3, read-out: IC50 in cell proliferation assay, cell line SK-BR-3 (ERBB2 amplification)
  IC50: > 31.6 µM
134 cancer cell lines; Homo sapiens, SK-N-AS, read-out: IC50 in cell proliferation assay, cell line SK-N-AS
  IC50: > 31.6 µM
134 cancer cell lines; Homo sapiens, SK-N-FI, read-out: IC50 in cell proliferation assay, cell line SK-N-FI
  IC50: > 31.6 µM
134 cancer cell lines; Homo sapiens, SK-N-MC, read-out: IC50 in cell proliferation assay, cell line SK-N-MC
  IC50: > 31.6 µM
134 cancer cell lines; Homo sapiens, SK-N-SH, read-out: IC50 in cell proliferation assay, cell line SK-N-SH (ALK p.F1174L)
  IC50: > 31.6 µM
134 cancer cell lines; Homo sapiens, SNU-5, read-out: IC50 in cell proliferation assay, cell line SNU-5 (MET amplification)
  IC50: > 31.6 µM
134 cancer cell lines; Homo sapiens, SNU-16, read-out: IC50 in cell proliferation assay, cell line SNU-16 (FGFR2 amplification)
  IC50: 8.76 µM
134 cancer cell lines; Homo sapiens, SNU-C2B, read-out: IC50 in cell proliferation assay, cell line SNU-C2B (EGFR p.R165Q)
  IC50: > 31.6 µM
134 cancer cell lines; Homo sapiens, SU-DHL-1, read-out: IC50 in cell proliferation assay, cell line SU-DHL-1 (NPM1-ALK)
  IC50: > 31.6 µM
134 cancer cell lines; Homo sapiens, SU-DHL-6, read-out: IC50 in cell proliferation assay, cell line SU-DHL-6
  IC50: > 31.6 µM
134 cancer cell lines; Homo sapiens, SUP-T1, read-out: IC50 in cell proliferation assay, cell line SUP-T1
  IC50: > 31.6 µM
134 cancer cell lines; Homo sapiens, SW48, read-out: IC50 in cell proliferation assay, cell line SW48 (EGFR p.G719S)
  IC50: > 31.6 µM
134 cancer cell lines; Homo sapiens, SW480, read-out: IC50 in cell proliferation assay, cell line SW480
  IC50: > 31.6 µM
134 cancer cell lines; Homo sapiens, SW626, read-out: IC50 in cell proliferation assay, cell line SW626
  IC50: > 31.6 µM
134 cancer cell lines; Homo sapiens, SW780, read-out: IC50 in cell proliferation assay, cell line SW780 (FGFR3-BAIAP2L1)
  IC50: 5.07 µM
134 cancer cell lines; Homo sapiens, SW837, read-out: IC50 in cell proliferation assay, cell line SW837
  IC50: > 31.6 µM
134 cancer cell lines; Homo sapiens, SW872, read-out: IC50 in cell proliferation assay, cell line SW872 (BRAF p.V600E)
  IC50: > 31.6 µM
134 cancer cell lines; Homo sapiens, SW900, read-out: IC50 in cell proliferation assay, cell line SW900
  IC50: > 31.6 µM
134 cancer cell lines; Homo sapiens, SW948, read-out: IC50 in cell proliferation assay, cell line SW948
  IC50: 19.9 µM
134 cancer cell lines; Homo sapiens, SW982, read-out: IC50 in cell proliferation assay, cell line SW982 (BRAF p.V600E)
  IC50: > 31.6 µM
134 cancer cell lines; Homo sapiens, SW-620, read-out: IC50 in cell proliferation assay, cell line SW620
  IC50: > 31.6 µM
134 cancer cell lines; Homo sapiens, T98G, read-out: IC50 in cell proliferation assay, cell line T98G
  IC50: > 31.6 µM
134 cancer cell lines; Homo sapiens, TCC-SUP, read-out: IC50 in cell proliferation assay, cell line TCCSUP
  IC50: > 31.6 µM
134 cancer cell lines; Homo sapiens, THP-1, read-out: IC50 in cell proliferation assay, cell line THP-1
  IC50: > 31.6 µM
134 cancer cell lines; Homo sapiens, U2OS, read-out: IC50 in cell proliferation assay, cell line U2OS
  IC50: > 31.6 µM
134 cancer cell lines; Homo sapiens, U-87 MG, read-out: IC50 in cell proliferation assay, cell line U-87MG ATCC
  IC50: > 31.6 µM
134 cancer cell lines; Homo sapiens, U-118-MG, read-out: IC50 in cell proliferation assay, cell line U-118MG
  IC50: > 31.6 µM
134 cancer cell lines; Homo sapiens, UMUC3, read-out: IC50 in cell proliferation assay, cell line UM-UC-3
  IC50: > 31.6 µM
134 cancer cell lines; Hs766T, read-out: IC50 in cell proliferation assay, Hs 766T cell line
  IC50: > 31.6 µM
134 cancer cell lines; L-82, read-out: IC50 in cell proliferation assay, L-82 cell line (NPM1-ALK)
  IC50: > 31.6 µM
134 cancer cell lines; Rh30, read-out: IC50 in cell proliferation assay, cell line Rh30
  IC50: > 31.6 µM
134 cancer cell lines; read-out: IC50 in cell proliferation assay, 11-18 cell line (EGFR p.L858R)
  IC50: > 31.6 µM
134 cancer cell lines; read-out: IC50 in cell proliferation assay, Hs 852.T cell line
  IC50: > 31.6 µM
134 cancer cell lines; read-out: IC50 in cell proliferation assay, JAR cell line
  IC50: > 31.6 µM
134 cancer cell lines; read-out: IC50 in cell proliferation assay, cell line 5637
  IC50: 18.3 µM
134 cancer cell lines; read-out: IC50 in cell proliferation assay, cell line A-388
  IC50: > 31.6 µM
134 cancer cell lines; read-out: IC50 in cell proliferation assay, cell line DB
  IC50: > 31.6 µM
134 cancer cell lines; read-out: IC50 in cell proliferation assay, cell line DEL (NPM1-ALK)
  IC50: > 31.6 µM
134 cancer cell lines; read-out: IC50 in cell proliferation assay, cell line ES-2 (BRAF p.V600E)
  IC50: > 31.6 µM
134 cancer cell lines; read-out: IC50 in cell proliferation assay, cell line PA-1
  IC50: 17.3 µM
134 cancer cell lines; read-out: IC50 in cell proliferation assay, cell line PC-3
  IC50: > 31.6 µM
134 cancer cell lines; read-out: IC50 in cell proliferation assay, cell line RD
  IC50: > 31.6 µM
134 cancer cell lines; read-out: IC50 in cell proliferation assay, cell line RKO (BRAF p.V600E)
  IC50: > 31.6 µM
134 cancer cell lines; read-out: IC50 in cell proliferation assay, cell line RL
  IC50: > 31.6 µM
134 cancer cell lines; read-out: IC50 in cell proliferation assay, cell line RT-4 (FGFR3-TACC3)
  IC50: > 31.6 µM
134 cancer cell lines; read-out: IC50 in cell proliferation assay, cell line SR (NPM1-ALK)
  IC50: 27.3 µM
134 cancer cell lines; read-out: IC50 in cell proliferation assay, cell line T24
  IC50: > 31.6 µM
134 cancer cell lines; read-out: IC50 in cell proliferation assay, cell line TT (RET p.C634W)
  IC50: > 31.6 µM
134 cancer cell lines; read-out: IC50 in cell proliferation assay, cell line VA-ES-BJ
  IC50: > 31.6 µM
[1]
  inhibition at 1 µM: -0.308%
[2]
  inhibition at 1 µM: -20%
[3]
  inhibition at 1 µM: 4.37%
AP-1060 (ETV6-NTRK3)
  IC50: > 31.6 µM
